In test [1] the target is T1, TOP1cc (Mus musculus, UniProt Q04750).
T1 construct: endogenous in cells; host or cells: UPK10 mouse ovarian cancer cells, sorted senescent and non-senescent fractions
T1 sequence (Q04750 1-767): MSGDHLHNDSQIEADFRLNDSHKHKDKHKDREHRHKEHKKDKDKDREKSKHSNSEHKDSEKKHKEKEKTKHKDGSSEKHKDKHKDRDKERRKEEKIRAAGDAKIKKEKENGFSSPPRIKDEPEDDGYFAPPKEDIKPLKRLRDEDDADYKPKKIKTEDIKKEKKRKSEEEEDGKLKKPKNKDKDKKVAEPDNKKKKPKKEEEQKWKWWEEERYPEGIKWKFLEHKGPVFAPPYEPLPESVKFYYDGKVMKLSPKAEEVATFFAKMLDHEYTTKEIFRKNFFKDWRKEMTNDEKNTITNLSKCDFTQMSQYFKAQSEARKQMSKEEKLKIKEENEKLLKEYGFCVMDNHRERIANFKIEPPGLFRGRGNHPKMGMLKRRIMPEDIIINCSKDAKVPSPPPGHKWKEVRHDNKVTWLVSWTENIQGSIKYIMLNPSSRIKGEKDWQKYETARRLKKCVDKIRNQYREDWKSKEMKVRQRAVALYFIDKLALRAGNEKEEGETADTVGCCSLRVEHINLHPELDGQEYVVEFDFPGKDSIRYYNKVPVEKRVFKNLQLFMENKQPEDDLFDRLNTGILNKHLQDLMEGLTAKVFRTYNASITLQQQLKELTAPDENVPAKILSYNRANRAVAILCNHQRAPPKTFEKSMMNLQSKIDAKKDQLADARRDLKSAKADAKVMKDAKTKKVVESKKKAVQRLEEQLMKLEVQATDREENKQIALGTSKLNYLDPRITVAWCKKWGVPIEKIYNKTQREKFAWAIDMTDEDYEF
The test can be described thus: Slot blot analysis of TOP1cc levels in CCF of senescent ID8-Defb29/Vegf-a cells. It counts as cell-based. The note with it: HMGB2 knockdown Cisplatin-induced senescent ID8-Defb29 Vegf-a cells. The method, then:
A CCF purification protocol was developed by modifying previous protocols (Shimizu et al., 1996; Ly et al., 2017). Briefly, 500 million senescent cells were collected, resuspended, and incubated in DMEM containing 10 μg/mL cytochalasin B for 30 minutes at 37° C. After wash once with ice-cold PBS, the cell pellet was gently dounce homogenized in ice-cold pre-chilled lysis buffer (10 mM Tris-HCl, 2 mM magnesium acetate, 3 mM CaCl2), 0.32 M sucrose, 0.1 mM EDTA, 1 mM DTT, 0.1% NP-40, 0.15 mM spermine, 0.75 mM spermidine, 10 μg/ml cytochalasin B, pH 8.5, 4° C.) with ten slow strokes of a loose-fitting pestle. Release of nuclei was confirmed by DAPI-staining and microscopy. The homogenate was fixed with 1% formaldehyde for 10 minutes, and mixed well with an equal volume of 1.6M sucrose buffer (10 mM Tris-HCl, 5 mM magnesium acetate, 0.1 mM EDTA, 1 mM DTT, 0.3% BSA, 0.15 mM spermine, 0.75 mM spermidine, pH 8.0, 4° C.). A 10 mL portion of homogenate was layered on the top of sucrose buffer gradient (20 mL and 15 mL containing 1.8M and 1.6M of sucrose, respectively) in a 50 mL tissue culture tube. The tubes were centrifuged at 1200×g for 20 minutes at 4° C. After centrifugation, the upper 3 mL of the gradient was discarded, and the next 15 mL containing CCFs was collected. […] DNA concentration was measured using Nanodrop and 5 μg DNA was used for slot blot analysis.

The target in test [2] is T2, TOP1cc (Homo sapiens, UniProt P11387).
T2 sequence (P11387 1-765): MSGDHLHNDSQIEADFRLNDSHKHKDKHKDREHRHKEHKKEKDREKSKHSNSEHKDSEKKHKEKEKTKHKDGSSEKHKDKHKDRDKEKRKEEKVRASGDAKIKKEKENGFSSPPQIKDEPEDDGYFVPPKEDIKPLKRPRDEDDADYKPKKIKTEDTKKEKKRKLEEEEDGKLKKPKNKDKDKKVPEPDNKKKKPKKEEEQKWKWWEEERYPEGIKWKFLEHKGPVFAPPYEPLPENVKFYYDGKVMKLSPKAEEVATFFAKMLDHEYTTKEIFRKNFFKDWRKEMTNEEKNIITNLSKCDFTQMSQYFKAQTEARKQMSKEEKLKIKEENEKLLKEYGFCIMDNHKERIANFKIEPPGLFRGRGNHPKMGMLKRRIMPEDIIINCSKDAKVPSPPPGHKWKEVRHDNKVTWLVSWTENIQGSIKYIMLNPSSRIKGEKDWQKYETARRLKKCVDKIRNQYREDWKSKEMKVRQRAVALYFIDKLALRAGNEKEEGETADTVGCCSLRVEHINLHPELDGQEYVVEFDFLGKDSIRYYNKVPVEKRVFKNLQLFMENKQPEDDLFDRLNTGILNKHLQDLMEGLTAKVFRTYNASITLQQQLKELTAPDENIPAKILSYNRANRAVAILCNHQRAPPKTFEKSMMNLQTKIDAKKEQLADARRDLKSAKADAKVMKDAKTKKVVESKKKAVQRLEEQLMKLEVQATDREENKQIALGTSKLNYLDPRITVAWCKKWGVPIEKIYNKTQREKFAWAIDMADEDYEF
The test can be described thus: TOP1cc induction in CPT-treated IMR90 cells (chromatin fragment extraction, slot blot). Details: endogenous in cells; host or cells: IMR90 human fibroblasts (senescent or proliferating, with or without shHMGB2). It is filed as cell-based. The following applies: IMR90 cells treated with two doses of CPT (5 μM or 50 μM, 30 minutes).
Procedure: For chromatin fragments extraction, proliferating IMR90 cells were treated with 5 μM or 50 μM Camptothecin for 30 minutes to induce low or high levels of TOP1cc, respectively. Cells then were incubated with hypotonic buffer (10 mM Tris, pH 7.4, 30 mM NaCl, 3 mM MgCl2, 0.1% NP40), supplemented with protease inhibitor cocktail, on ice for 10 mins (Dou et al., 2017). The cells were then centrifuged at 300×g for 3 mins at 4° C. The supernatant was carefully removed, and the resulting pellets were incubated with benzonase buffer (50 mM Tris pH 7.5, 300 mM NaCl, 0.5% NP40, 2.5 mM MgCl2) with protease inhibitor cocktail, supplemented with 10 U of benzonase (Sigma Cat. No: E1014), on ice, for 30 min. The product was centrifuged again at 300×g for 3 mins at 4° C., and benzonase was inactivated by addition of 15 mM EDTA. The resulting supernatant contains chromatin fragments and soluble nuclear proteins. For the negative controls, buffer without benzonase was used and the resulting supernatant only contains soluble nuclear proteins without chromatin fragments. The product was then diluted 5 times with PBS. Slot blot were performed to confirm the TOP1cc level.
Human Topoisomerase 1 ICE Assay Kit (TopoGEN. Cat. No:TG1020-1) was used to isolate protein-DNA samples which contain TOP1-DNA covalent complex (TOP Ice) for slot blot analysis. […] Quantification was performed using NIH Image J software.

`CC[C@@]1(O)C(=O)OCc2c1cc1n(c2=O)Cc2cc3ccccc3nc2-1` [CPT, Camptothecin]: the “TOP1cc levels in CCF” value on TOP1cc [1] is “Rescue of the decrease in TOP1cc levels”. In addition, the TOP1cc induction result at TOP1cc [2] was “induced TOP1cc in a dose-dependent manner”.

For the origin of these results see patent US20230082929A1, “METHODS OF GENERATING AND USING SENESCENT-INDUCED CELLS FOR TREATMENT OF CANCER AND COMPOSITIONS RELATING THERETO” (The Wistar Institute of Anatomy and Biology, priority 2020, published 2023).
